For two sequences, IC50 results are on record in publication PMC3436870, “The Conserved Residue Arg46 in the N-Terminal Heptad Repeat Domain of HIV-1 gp41 Is Critical for Viral Fusion and Entry” (PLoS ONE, 2012).

Test [1] relates to HIV-1IIIB-mediated cell-cell fusion (H9/HIV-1IIIB-infected cells with MT-2 cells). It counts as cell-based. The settings on record: calcein-AM-labeled H9/HIV-1IIIB-infected cells with MT-2 cells (ratio 1:5), 37°C, 2 h; fused cells counted under fluorescence microscope; read-out: IC50 (nM) for inhibition of HIV-1IIIB-mediated cell-cell fusion. An excerpt:
To detect HIV-1 mediated cell-cell fusion, we performed a dye transfer assay as previously described. […] Then under an inverted fluorescence microscope (Zeiss, Germany) with an eyepiece micrometer disc, we calculated the fused and unfused calcein-labeled HIV-1-infected cells. Previously developed methods were applied to calculate the percent inhibition of cell-cell fusion and the IC50 values.

For test [2], the system named is HIV-1 IIIB. The test is described as follows: Inhibition of HIV-1IIIB infection of MT-2 cells, p24 ELISA. It counts as cell-based. The settings on record: HIV-1 IIIB at 100 TCID50, peptide overnight, p24 antigen ELISA on fourth day post-infection. The method, then:
The inhibitory activity of the NHR- and CHR-peptides on HIV-1IIIB infection was determined as previously described. In brief, 1×10^4 MT-2 cells were infected with HIV-1 IIIB at 100 TCID50 (50% tissue culture infective dose) in 200 µl culture medium in the presence or absence of the test peptide overnight. Then the culture supernatants were removed, and fresh media were added. On the fourth day post-infection, 100 µl of culture supernatants were collected from each well, mixed with equal volumes of 5% Triton X-100 and assayed for p24 antigen by an in-house ELISA as described before.

Ends that are not written are not given here.

“WMEWDREINNYTSLIHSLIEASQNQQEKNEQELL [C34 E137A]”: the IC50 is 4.681 ± 0.029 nM in test [1] and 12.2 ± 1.28 nM in test [2].

“WMEWDREINNYTSLIHSLIERSQNQQEKNEQELL [C34 E137R]”: the concentration for half-maximal inhibition (IC50) in test [1] is 5.32 ± 1.29 nM; in test [2], 22.1 ± 1.8 nM.
